Experimental data: US20100303887A1, “DHA and PEDF, a Therapeutic Composition for Nerve and Retinal Pigment Epithelial Cells” (priority 2007, published 2010)

Columns and labels:
NPD1 synthesis = NPD1 synthesis and release from polarized primary human RPE cell monolayers (lipidomic analysis); type: cell-based
Procedure: Human RPE cells. Cultures of retinal pigment epithelial (RPE) cells were prepared. RPE cells were seeded onto Millicell-HA culture plate inserts (Millipore, Bradford, Mass.), placed in 24-well plates, and allowed to reach confluence. Consent for use of tissue for research was obtained in compliance with Federal and State law and institutional regulations. Cultures were maintained in Chee's essential replacement medium until the experiments were performed as described in J. Hu and D. Bok (2001) Mol Vis 7:14-19. The medium includes Eagle's minimal essential medium with calcium (MEM, Irvine Scientific, Irvine, Calif.), 1% heat-inactivated calf serum (JRH Bioscience, Lennexo, Kans.), amino acid supplements, and 1% bovine retinal extract. The Millicell-HA filter inserts allow separate manipulation of the culture media bathing the apical and basal surfaces of the RPE monolayer and measurement of the transepithelial resistance (TER), which provides a measure of cell differentiation and confluency. Cultures were used for experiments once they developed a TER of at least 400 Ω·cm^2, as measured by an Epithelial Volt-ohmmeter (EVOM, World Precision Instruments, New Haven, Conn.).
Exposure of RPE cells to growth factors. […] […] The lower chamber was filled with 500 μl media (bathing the basal cell monolayer surface) containing 0.1% HSA. Cells were incubated for 72 hours, then apical and basal media were removed and collected for analysis. After allowing the cells to rest for at least 72 hours on fresh media, the experiments were repeated.
Lipidomic analysis. Human RPE primary cell cultures or ARPE-19 cells were separated from culture media and washed with 1 ml PBS. After addition of 1 ml methanol, cells were scraped from plates or millicell membranes and collected for lipid extraction. Media was spun-down to separate cell debris, then 350 μl were collected in 1 ml of cold chloroform:methanol (1:1). Protein precipitates were then separated by centrifugation at 1500×g (5 min, 4° C.). Lipid extracts were collected, and kept under nitrogen at −80° C. until solid-phase purification; extracts were pre-equilibrated at pH 3.0 in 10% methanol/water, then loaded to 500 mg C18 columns (Varian, Inc., Palo Alto, Calif.), and eluted with 1% methanol/ethyl acetate. Eluates were concentrated on a N2 stream evaporator. Samples were loaded to a liquid chromatograph-tandem mass spectrometer (LC-TSQ Quantum, Thermo-Finnigan; Thermo Fisher Scientific, Waltham, Mass.) installed with a Biobasic-AX column (Thermo-Hypersil-Keystone, Thermo Fisher Scientific, Waltham, Mass.) (100 mm\2.1 mm, 5-μm particle sizes), and eluted in a linear gradient [100% solution A (40:60:0.01 methanol/water/acetic acid pH 4.5) to 100% solution B (99.99:0.01 methanol/acetic acid)], at a flow rate of 300 μl/min for 30 minutes. LC effluents were diverted to an electro-spray-ionization probe (ESI) on a TSQ Quantum (Thermo-Finnigan, Thermo Fisher Scientific, Waltham, Mass.) triple quadrupole mass spectrometer. NPD1 and resolving D1 were obtained by biogenic synthesis as described in N. G. Bazan, D. L. Birkle, and T. S. Reddy (1984) Biochem Biophys Res Commun. 125:741-74, and V. L. Marcheselli et al. (2003) J. Biol. Chem. 278:43807-43817. Erratum in: (2003) J Biol Chem 278:51974. Other lipid standards (Cayman Chem. Ann Arbor, Mich.) were used for tuning and optimization and to create calibration curves. The instrument was set on full-scan mode, to detect parent ions, and selected reaction mode (SRM) for quantitative analysis, to detect product ions, simultaneously. The selected parent/product ions (m/z) and collision energy (v) obtained by running on negative ion detection mode were: 359.2/153.1/20 for NPD1, 343.2/281.2/18 for resolving D1, 351.2/195.0/22 for 20HO-LTB4 (used as internal standard), 327.2/283.3/16 for DHA, 311.3/267.3/20 Arachidonic Acid-d8 (used as internal standard, IS).
Neurotrophins activated NPD1 synthesis in cultured primary human RPE cells. […]

ARPE-19 cells [1] = test: Serum starvation/H2O2/TNFα oxidative stress-induced apoptosis in ARPE-19 cells (Hoechst staining); type: cell-based, human; details: NPD1 added eight hours after triggering oxidative stress
Procedure: Exposure of ARPE-19 cells to growth factors. Cells at 75-80% confluence (72 hr growth in DMEM/F12+10% FBS) were serum-starved for 2 hr before exposure to growth factors. The serum-starved cells were treated with TNF-α (Sigma-Aldrich Corporation, St. Louis, Mo.) (10 ng/ml) and H2O2 (600 μM) to induce oxidative stress and challenged with increasing concentrations (10, 30, 50 nM) and PEDF (Chemicon International, Temecula, Calif.) (50 ng/ml) simultaneously with oxidative stress for 4 hr before harvesting for protein analysis. Cell extracts were made and protein concentrations were adjusted by Bio-Rad protein reagent and used for Western-blot analysis. […] Cells were analyzed to detect Hoechst-positive apoptotic cells.
Hoechst Staining. […] Cells were washed once with PBS and photographed using a Nikon DIAPHOT 200 microscope with fluorescence optics. Images were recorded by a Hamamatsu Color Chilled 3CCD camera and PHOTOSHOP 5.0 software (Adobe Systems, Mountain View, Calif.).
A2E, a lipofusin component, accumulates in the RPE during aging, and, in an exaggerated manner, in age-related macular degeneration (AMD) and Stargardt macular dystrophy (an early onset form of AMD). […] Hoechst 33258 was analyzed at 15 hours. […]

Bcl-2 = Bcl-2 expression in A2E-exposed ARPE-19 cells (Western blot); type: cell-based, human; details: NPD1 50 nM
Procedure: (§1) Analysis of Bcl-2 and caspase-3 cleavage. Bcl-2 protein and caspase-3 cleavage were analyzed by Western-blot analysis. Also, ARPE-19 cells, stably transfected with a lentivirus construct containing the […] caspase 3 cleavage sequence, were used. In short, 15-20 μg equivalent of each cell extract were subjected to electrophoresis on an 8-16% gel (Invitrogen Corporation, Carlsbad, Calif.) at 125 volts for 2 hr. The proteins were transferred to nitrocellulose membranes at 30 volts for 70 minutes at 4° C. The membranes were probed with primary antibodies against Bcl-2 (Santa Cruz Biotechnology, Inc., Santa Cruz, Calif.) and cleaved caspase-3 (Asp-175) (Cell Signaling) at room temperature and treated for 20 minutes with the secondary antibody, goat anti-rabbit IgG: horseradish peroxidase, and horseradish peroxidase-conjugated anti-biotin antibody, then proteins were detected by using an ECL kit (Amersham Biosciences, Buckinghamshire, United Kingdom).
(§2) Caspase cleavage and Bcl-2 changes triggered by A2E are restored by NPD1. […] NPD1 (50 nM) counteracted the effect of A2E (see Materials and Methods). Data is an average of relative density detection±SEM of six individuals. […] These findings indicate that NPD1 protects the RPE against A2E-induced apoptosis at the pre-mitochondrial level of the apoptosis cascade by altering Bcl-2 balance. […]

Bax = Bax expression in A2E-exposed ARPE-19 cells (Western blot); type: cell-based, human; details: NPD1 50 nM
A2E oxiranes (epoxides) = test: A2E conversion to A2E oxiranes (epoxides) in ARPE-19 cells, LC-MS-MS; type: cell-based, human; details: NPD1 50 nM; light and oxygen
Procedure: (§3) A2E, a lipofusin component, accumulates in the RPE during aging, and, in an exaggerated manner, in age-related macular degeneration (AMD) and Stargardt macular dystrophy (an early onset form of AMD). As a consequence, RPE apoptosis precedes the demise of photoreceptors. […] Seventy-two (72) hours after plating, ARPE-19 cells were serum starved for 4 hours. A2E (20 μM) was added in the presence of 430 nM light and O2 (see Materials and Methods). Other cells were exposed instead to H2O2/TNFα. NPD1 was added prior to, or at different times after, A2E or H2O2/TNFα, up to 12 hours. Time of NPD1 addition is indicated by black arrows on FIG. 1A. Hoechst 33258 was analyzed at 15 hours. FIG. 1B illustrates the appearance of Hoechst 33258 positive cells upon exposure to A2E and the effect of NPD1. FIG. 1C is similar to FIG. 1B, except that H2O2/TNFα was used to trigger oxidative stress. FIG. 1D depicts the formation of oxiranes (epoxides) upon exposure of ARPE-19 cells to A2E in the presence of O2 and 430 nM light for 15 minutes followed by 60 minutes incubation in the dark. […]
To study the mechanism of NPD1-mediated RPE protection against A2E oxidative stress, the possibility that A2E conversion to A2E oxiranes (epoxides) may be the target of NPD1 was tested. […] Multiple oxiranes (epoxides), up to nonaoxiranes, were detected by MS-MS in ARPE-19 cells exposed to light and oxygen (FIG. 1D).

caspase-3 = test: Caspase-3 cleavage in A2E-exposed ARPE-19 cells (Western blot); type: cell-based, human; details: NPD1 50 nM
Procedure: as §1, §2

ARPE-19 cells [2] = test: A2E-induced apoptosis in ARPE-19 cells (Hoechst 33258 staining); type: cell-based, human
Procedure: Hoechst Staining. ARPE-19 cells were incubated with 2 μM Hoechst reagent dissolved in Lock's solution (Promega Corporation, Madison. Wis.) at 37° C. for 45 minutes before imaging. Cells were washed once with PBS and photographed using a Nikon DIAPHOT 200 microscope with fluorescence optics. Images were recorded by a Hamamatsu Color Chilled 3CCD camera and PHOTOSHOP 5.0 software (Adobe Systems, Mountain View, Calif.).
as §3, with “stress.” for “stress. FIG. 1D depicts the formation of oxiranes (epoxides) upon exposure of ARPE-19 cells to A2E in the presence of O2 and 430 nM light for 15 minutes followed by 60 minutes incubation in the dark.”

ARPE-19 cells [3] = test: Cell viability using calcein (AM), ethidium homodimer and phase contrast microscopy after oxidative stress; type: cell-based, human; details: added up to 15 hr after triggering oxidative stress; data not shown
Source text: A2E-triggered oxidative stress precedes cell death. Since oxidative stress and/or inflammatory signaling are involved in early stages of retinal degenerations, oxidative stress, triggered by another experimental condition, serum starvation/H2O2/TNFα was explored (FIG. 1C). NPD1 also exerted protection in this experimental condition. […] What was surprising was the extended time window. […] (Data not shown)

[4] = increasing concentrations, 72 hr

## CC/C=C\C/C=C\C/C=C\C/C=C\C/C=C\C/C=C\CCC(=O)O [DHA, docosahexaenoic acid]
NPD1 synthesis; 200 nM DHA (25% when no DHA was added)
  Cellular NPD1 content (percentile distribution of total NPD1): 7%
NPD1 synthesis; DHA treatment on the apical media
  DHA concentration at which NPD1 in the apical media reaches a maximum: 50 nM

## CC/C=C\C[C@H](O)\C=C/C=C/C=C/[C@H](O)C/C=C\C/C=C\CCC(=O)O [NPD1, Neuroprotectin D1]
ARPE-19 cells [1]
  Protection against H2O2/TNFα oxidative stress-induced apoptosis, delayed addition: resulted in protection
Bcl-2
  Effect on Bcl-2 protein expression: increased Bcl-2 protein expression
Bax
  Effect on Bax expression: showed a tendency to decrease Bax expression
A2E oxiranes (epoxides)
  Effect on A2E conversion to A2E oxiranes (epoxides): did not affect this conversion
caspase-3
  Effect on A2E-enhanced caspase-3 cleavage: counteracted A2E-enhanced caspase-3 cleavage
ARPE-19 cells [2]; A2E 20 μM, 430 nm light and O2, Hoechst at 15 hours
  Cytoprotection against A2E-induced apoptosis (Hoechst 33258 positive cells): cytoprotective
ARPE-19 cells [2]; NPD1 50 nM added 6 hours after A2E
  Protection against A2E-induced apoptosis, delayed addition: ensures protection
ARPE-19 cells [3]
  Protection of cell viability (calcein AM, ethidium homodimer, phase contrast): showed protection

## CCCCC/C=C\C/C=C\C/C=C\C/C=C\CCCC(=O)O [arachidonic acid, reference compound]
NPD1 synthesis; 72 hr, DHA 0 to 200 nM, arachidonic acid under similar conditions
  NPD1 synthesis and release, fatty acid added to the apical medium: failed to induce NPD1 synthesis
NPD1 synthesis; added arachidonic acid with PEDF
  NPD1 synthesis, arachidonic acid in the presence of PEDF: did not stimulate NPD1 synthesis

B1: CNTF: ciliary neurotrophic factor, a neurotrophin (protein, UniProt P26441 1-200, looked up)
Ciliary neurotrophic factor: MAFTEHSPLTPHRRDLCSRSIWLARKIRSDLTALTESYVKHQGLNKNINLDSADGMPVASTDQWSELTEAERLQENLQAYRTFHVLLARLLEDQQVHFTPTEGDFHQAIHTLLLQVAAFAYQIEELMILLEYKIPRNEADGMPINVGDGGLFEKKLWGLKVLQELSQWTVRSIHDLRFISSHQTGIPARGSHYIANNKKM
NPD1 synthesis; [4]
  NPD1 release, neurotrophin added to the apical medium: concentration-dependent increases in NPD1 release only on the apical side
  NPD1 release, neurotrophin added to the basal medium: much less NPD1 release on the apical side
